# Target: T1, FAAH (Mus musculus, UniProt O08914)
# T1 construct: For gel based ABPP experiments mouse brain proteome (2.0 mg/mL, 20 µL) was preincubated; from tissue; host or cells: mouse brain proteome
# T1 sequence (O08914 1-579): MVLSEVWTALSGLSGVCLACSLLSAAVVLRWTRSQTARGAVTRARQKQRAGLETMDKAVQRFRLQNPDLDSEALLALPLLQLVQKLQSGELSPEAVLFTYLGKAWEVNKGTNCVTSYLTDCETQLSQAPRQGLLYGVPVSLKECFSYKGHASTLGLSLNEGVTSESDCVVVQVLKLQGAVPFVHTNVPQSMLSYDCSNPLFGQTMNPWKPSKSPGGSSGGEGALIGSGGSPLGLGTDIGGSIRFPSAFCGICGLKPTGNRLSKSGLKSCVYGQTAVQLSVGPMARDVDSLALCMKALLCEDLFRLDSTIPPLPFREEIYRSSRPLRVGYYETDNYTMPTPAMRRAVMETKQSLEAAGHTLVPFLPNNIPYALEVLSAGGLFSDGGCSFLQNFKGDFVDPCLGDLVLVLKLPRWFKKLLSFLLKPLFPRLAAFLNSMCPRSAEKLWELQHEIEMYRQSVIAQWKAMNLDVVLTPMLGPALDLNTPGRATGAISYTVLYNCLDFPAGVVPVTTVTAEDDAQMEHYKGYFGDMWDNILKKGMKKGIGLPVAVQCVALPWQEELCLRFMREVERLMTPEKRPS
# Assay: Gel based competitive ABPP selectivity assay with TAMRA-FP in mouse brain proteome (FAAH band)
# Assay type: biochemical
# Settings: 10 µM inhibitor; TAMRA-FP 500 nM; mouse brain proteome; vehicle set to 100%
# Protocol: For gel based ABPP experiments mouse brain proteome (2.0 mg/mL, 20 µL) was preincubated for 30 min with vehicle (DMSO) or compound to be tested in 0.5 µL DMSO at rt. And subsequently treated with 500 nM (final concentration) TAMRA-FP (TAMRA-FP was bought at Thermo Fischer) for 15 minutes at rt. The reactions were quenched with 10 µL standard 3 x SDS page sample buffer. The samples were directly loaded and resolved on SDS page gel (10 % acrylamide). The gels were scanned with a ChemiDoc MP sytem (Biorad, Cy 3 settings, 605/50 filter) and analyzed using Image Lab 4.1.
# The percentage effect on FAAH was determined by measuring the integrated optical intensity of the band corresponding to FAAH (∼ 63 kD for mouse) using Image lab software. This activity was corrected for the total protein loading per lane as determined by coomassie staining and imaging with a ChemiDoc™ MP sytem (Biorad) followed by determination of the integrated optical intensity per lane by using Image Lab 4.1 software. The intensity of the protein bands from the samples treated with vehicle was set to 100%. […] N/A means less than 50% probe displacement at 10 µM inhibitor concentration.
compound,measurement,value
"O=C(CCCCCc1ccccc1)c1nc2ncc(-c3cccc(F)c3)cc2o1 [Compound 52, 1-(6-(3-fluorophenyl)oxazolo[4,5-b]pyridin-2-yl)-6-phenylhexan-1-one]",FAAH ABPP (10 µm) % Eff.,N/A (N/A means less than 50% probe displacement at 10 µM inhibitor concentration)
"Cc1ccc(-c2cnc3nc(C(=O)CCCCC(F)(F)F)oc3c2)cc1 [Compound 43, 6,6,6-trifluoro-1-(6-(p-tolyl)oxazolo[4,5-b]pyridin-2-yl)hexan-1-one]",FAAH ABPP (10 µm) % Eff.,N/A (N/A means less than 50% probe displacement at 10 µM inhibitor concentration)
"O=C(CCCCCc1ccncc1)c1nc2ncc(-c3ccccc3F)cc2o1 [Compound 48, 1-(6-(2-fluorophenyl)oxazolo[4,5-b]pyridin-2-yl)-6-(pyridin-4-yl)hexan-1-one]",FAAH ABPP (10 µm) % Eff.,N/A (N/A means less than 50% probe displacement at 10 µM inhibitor concentration)
"Cn1cccc1-c1cnc2nc(C(=O)CCCCCc3ccccc3)oc2c1 [Compound 46, 1-(6-(1-methyl-1H-pyrrol-2-yl)oxazolo[4,5-b]pyridin-2-yl)-6-phenylhexan-1-one]",FAAH ABPP (10 µm) % Eff.,N/A (N/A means less than 50% probe displacement at 10 µM inhibitor concentration)
"Cc1ccc(-c2cnc3nc(C(=O)CCC(F)(F)F)oc3c2)cc1 [Compound 42, 4,4,4-trifluoro-1-(6-(p-tolyl)oxazolo[4,5-b]pyridin-2-yl)butan-1-one]",FAAH ABPP (10 µm) % Eff.,N/A (N/A means less than 50% probe displacement at 10 µM inhibitor concentration)
"Cc1ccccc1-c1cnc2nc(C(=O)CCCCCc3ccccc3)oc2c1 [Compound 54, 6-phenyl-1-(6-(o-tolyl)oxazolo[4,5-b]pyridin-2-yl)hexan-1-one]",FAAH ABPP (10 µm) % Eff.,N/A (N/A means less than 50% probe displacement at 10 µM inhibitor concentration)
"N#Cc1ccc(-c2cnc3nc(C(=O)CCCCCc4ccccc4)oc3c2)cc1 [Compound 51, 4-(2-(6-phenylhexanoyl)oxazolo[4,5-b]pyridin-6-yl)benzonitrile]",FAAH ABPP (10 µm) % Eff.,N/A (N/A means less than 50% probe displacement at 10 µM inhibitor concentration)
"O=C(CCCCCc1ccccc1)c1nc2ncc(-c3cccs3)cc2o1 [Compound 44, 6-phenyl-1-(6-(thiophen-2-yl)oxazolo[4,5-b]pyridin-2-yl)hexan-1-one]",FAAH ABPP (10 µm) % Eff.,N/A (N/A means less than 50% probe displacement at 10 µM inhibitor concentration)
"Cc1ccc(-c2cnc3nc(C(=O)Cc4ccccc4)oc3c2)cc1 [Compound 34, 2-phenyl-1-(6-(p-tolyl)oxazolo[4,5-b]pyridin-2-yl)ethan-1-one]",FAAH ABPP (10 µm) % Eff.,N/A (N/A means less than 50% probe displacement at 10 µM inhibitor concentration)
"O=C(CCCCCc1ccccc1)c1nc2ncc(-c3ccc(F)cc3)cc2o1 [Compound 58, 1-(6-(4-fluorophenyl)oxazolo[4,5-b]pyridin-2-yl)-6-phenylhexan-1-one]",FAAH ABPP (10 µm) % Eff.,N/A (N/A means less than 50% probe displacement at 10 µM inhibitor concentration)
"Cc1ccc(-c2cnc3nc(C(=O)CCc4ccccc4)oc3c2)cc1 [Compound 35, 3-phenyl-1-(6-(p-tolyl)oxazolo[4,5-b]pyridin-2-yl)propan-1-one]",FAAH ABPP (10 µm) % Eff.,N/A (N/A means less than 50% probe displacement at 10 µM inhibitor concentration)
"O=C(CCCCCc1ccccc1)c1nc2ncc(-c3ccccc3F)cc2o1 [Compound 57, 1-(6-(2-fluorophenyl)oxazolo[4,5-b]pyridin-2-yl)-6-phenylhexan-1-one]",FAAH ABPP (10 µm) % Eff.,N/A (N/A means less than 50% probe displacement at 10 µM inhibitor concentration)
"Cc1cccc(C)c1-c1cnc2nc(C(=O)CCCCCc3ccccc3)oc2c1 [Compound 50, 1-(6-(2,6-dimethylphenyl)oxazolo[4,5-b]pyridin-2-yl)-6-phenylhexan-1-one]",FAAH ABPP (10 µm) % Eff.,N/A (N/A means less than 50% probe displacement at 10 µM inhibitor concentration)
"O=C(CCCCCc1ccccc1)c1nc2ncc(-c3cccc(Cl)c3)cc2o1 [Compound 39, 1-(6-(3-chlorophenyl)oxazolo[4,5-b]pyridin-2-yl)-6-phenylhexan-1-one]",FAAH ABPP (10 µm) % Eff.,N/A (N/A means less than 50% probe displacement at 10 µM inhibitor concentration)
"Cc1ccccc1-c1cnc2nc(C(=O)CCCCOc3ccc(F)cc3)oc2c1 [Compound 49, 5-(4-fluorophenoxy)-1-(6-(o-tolyl)oxazolo[4,5-b]pyridin-2-yl)pentan-1-one]",FAAH ABPP (10 µm) % Eff.,N/A (N/A means less than 50% probe displacement at 10 µM inhibitor concentration)
"COc1ccc(-c2cnc3nc(C(=O)CCCCCc4ccccc4)oc3c2)cc1 [Compound 41, 1-(6-(4-methoxyphenyl)oxazolo[4,5-b]pyridin-2-yl)-6-phenylhexan-1-one]",FAAH ABPP (10 µm) % Eff.,N/A (N/A means less than 50% probe displacement at 10 µM inhibitor concentration)
"O=C(CCCCCc1ccccc1)c1nc2ncc(-c3ccccc3Cl)cc2o1 [Compound 38, 1-(6-(2-chlorophenyl)oxazolo[4,5-b]pyridin-2-yl)-6-phenylhexan-1-one]",FAAH ABPP (10 µm) % Eff.,N/A (N/A means less than 50% probe displacement at 10 µM inhibitor concentration)
"Cc1ccc(-c2cnc3nc(C(=O)CCCc4ccccc4)oc3c2)cc1 [Compound 36, 4-phenyl-1-(6-(p-tolyl)oxazolo[4,5-b]pyridin-2-yl)butan-1-one]",FAAH ABPP (10 µm) % Eff.,N/A (N/A means less than 50% probe displacement at 10 µM inhibitor concentration)
"O=C(CCCCCc1ccccc1)c1nc2ncc(-c3ccncc3)cc2o1 [Compound 37, 6-phenyl-1-(6-(pyridin-4-yl)oxazolo[4,5-b]pyridin-2-yl)hexan-1-one]",FAAH ABPP (10 µm) % Eff.,N/A (N/A means less than 50% probe displacement at 10 µM inhibitor concentration)
"O=C(CCCCCc1ccccc1)c1nc2ncc(-c3nnn[nH]3)cc2o1 [Compound 45, 1-(6-(1H-tetrazol-5-yl)oxazolo[4,5-b]pyridin-2-yl)-6-phenylhexan-1-one]",FAAH ABPP (10 µm) % Eff.,N/A (N/A means less than 50% probe displacement at 10 µM inhibitor concentration)
"Cc1ccccc1-c1cnc2nc(C(=O)CCCCCc3ccc(F)cc3)oc2c1 [Compound 47, 6-(4-fluorophenyl)-1-(6-(o-tolyl)oxazolo[4,5-b]pyridin-2-yl)hexan-1-one]",FAAH ABPP (10 µm) % Eff.,N/A (N/A means less than 50% probe displacement at 10 µM inhibitor concentration)
"O=C(CCCCCc1ccccc1)c1nc2ncc(-c3ccc(Cl)cc3)cc2o1 [Compound 40, 1-(6-(4-chlorophenyl)oxazolo[4,5-b]pyridin-2-yl)-6-phenylhexan-1-one]",FAAH ABPP (10 µm) % Eff.,N/A (N/A means less than 50% probe displacement at 10 µM inhibitor concentration)
"O=C(CCCCCc1ccccc1)c1nc2ncc(-c3ccccn3)cc2o1 [Compound 53, 6-phenyl-1-(6-(pyridin-2-yl)oxazolo[4,5-b]pyridin-2-yl)hexan-1-one]",FAAH ABPP (10 µm) % Eff.,N/A (N/A means less than 50% probe displacement at 10 µM inhibitor concentration)
"Cc1cccc(-c2cnc3nc(C(=O)CCCCCc4ccccc4)oc3c2)c1 [Compound 55, 6-phenyl-1-(6-(m-tolyl)oxazolo[4,5-b]pyridin-2-yl)hexan-1-one]",FAAH ABPP (10 µm) % Eff.,N/A (N/A means less than 50% probe displacement at 10 µM inhibitor concentration)

# From patent publication EP3095787A1, “[…] ACTIVE COMPOUNDS AS DAG-LIPASE INHIBITORS” (Universiteit Leiden, priority 2015, dated 2016)
